Data from ChEMBL document CHEMBL2021793, “Synthesis, biological evaluation and structure-activity relationships of glycyrrhetinic acid derivatives as novel anti-hepatitis B virus agents” (Bioorg Med Chem Lett, 2012).

Experiments:
[1] = Cytotoxicity against human HepG2(2.2.15) cells; assay type: cell-based
[2] = tested on: Hepatitis B virus; experiment: Antiviral activity against Hepatitis B virus infected in human HepG2(2.2.15) cells assessed as reduction in hepatitis B surface antigen release; assay type: functional, organism-based
[3] = tested on: Hepatitis B virus; experiment: Antiviral activity against Hepatitis B virus infected in human HepG2(2.2.15) cells assessed as reduction in hepatitis B e-antigen release; assay type: functional, organism-based
[4] = tested on: Hepatitis B virus; experiment: Antiviral activity against Hepatitis B virus infected in human HepG2(2.2.15) cells assessed as reduction in viral DNA replication; assay type: functional, organism-based
[5] = Selectivity index, ratio of CC50 for human HepG2(2.2.15) cells to IC50 for HBV by viral DNA replication detection assay; assay type: functional

| IC50 [2] [µM] | IC50 [3] [µM] | IC50 [4] [µM] | SMILES | CC50 [1] [µM] | Ratio CC50/IC50 [5] |
| --- | --- | --- | --- | --- | --- |
| > 1850 | > 1850 | 529 | CC1(C)[C@@H](O)CC[C@]2(C)[C@H]3C(=O)C=C4[C@@H]5C[C@@](C)(C(=O)OCc6cccc(Cl)c6)CC[C@]5(C)CC[C@@]4(C)[C@]3(C)CC[C@@H]12 | > 1850 | >3.5 |
| > 1230 | > 1230 | > 307 | CC1(C)[C@@H](O)CC[C@]2(C)[C@H]3C(=O)C=C4[C@@H]5C[C@@](C)(C(=O)OCc6cc(F)cc(F)c6)CC[C@]5(C)CC[C@@]4(C)[C@]3(C)CC[C@@H]12 | > 1230 |  |
| > 1700 | > 1700 | > 426 | CC1(C)[C@@H](O)CC[C@]2(C)[C@H]3C(=O)C=C4[C@@H]5C[C@@](C)(C(=O)OCc6cc(C(F)(F)F)cc(C(F)(F)F)c6)CC[C@]5(C)CC[C@@]4(C)[C@]3(C)CC[C@@H]12 | > 1700 |  |
| > 1530 | > 1530 | > 382 | CC1(C)[C@@H](O)CC[C@]2(C)[C@H]3CC=C4[C@@H]5C[C@@](C)(C(=O)OCc6ccc(Br)cc6F)CC[C@]5(C)CC[C@@]4(C)[C@]3(C)CC[C@@H]12 | 1150 |  |
| 638 | > 1170 | > 292 | CCOC(=O)CCCOC(=O)[C@@]1(C)CC[C@]2(C)CC[C@]3(C)C(=CC[C@@H]4[C@@]5(C)CC[C@H](O)C(C)(C)[C@@H]5CC[C@]43C)[C@@H]2C1 | 530 |  |
| > 1030 | > 1030 | > 259 | COc1cc(/C=C/C(=O)O[C@H]2CC[C@]3(C)[C@H]4CC=C5[C@@H]6C[C@@](C)(C(=O)OCc7ccc(Br)cc7F)CC[C@]6(C)CC[C@@]5(C)[C@]4(C)CC[C@H]3C2(C)C)cc(OC)c1OC | 935 |  |
| > 1000 | > 1000 | > 250 | COc1cccc(/C=C/C(=O)O[C@H]2CC[C@]3(C)[C@H]4CC=C5[C@@H]6C[C@@](C)(C(=O)OCc7ccc(Br)cc7F)CC[C@]6(C)CC[C@@]5(C)[C@]4(C)CC[C@H]3C2(C)C)c1 | > 1000 |  |
| > 1230 | > 1230 | > 307 | CCOC(=O)CCCOC(=O)[C@@]1(C)CC[C@]2(C)CC[C@]3(C)C(=CC[C@@H]4[C@@]5(C)CC[C@H](OC(=O)/C=C/c6cc(OC)c(OC)c(OC)c6)C(C)(C)[C@@H]5CC[C@]43C)[C@@H]2C1 | > 1230 |  |
| > 1180 | > 1180 | > 294 | CCOC(=O)CCCOC(=O)[C@@]1(C)CC[C@]2(C)CC[C@]3(C)C(=CC[C@@H]4[C@@]5(C)CC[C@H](OC(=O)c6cc(=O)c7ccccc7o6)C(C)(C)[C@@H]5CC[C@]43C)[C@@H]2C1 | > 1180 |  |
| > 2310 | > 2310 | > 578 | C=CCOC(=O)[C@@]1(C)CC[C@]2(C)CC[C@]3(C)C(=CC(=O)[C@@H]4[C@@]5(C)CC[C@H](O)C(C)(C)[C@@H]5CC[C@]43C)[C@@H]2C1 | > 2310 |  |
| > 986 | > 986 | > 247 | CCCCOC(=O)[C@@]1(C)CC[C@]2(C)CC[C@]3(C)C(=CC(=O)[C@@H]4[C@@]5(C)CC[C@H](O)C(C)(C)[C@@H]5CC[C@]43C)[C@@H]2C1 | > 986 |  |
| > 1450 | > 1450 | > 362 | CCCCCCCCOC(=O)[C@@]1(C)CC[C@]2(C)CC[C@]3(C)C(=CC(=O)[C@@H]4[C@@]5(C)CC[C@H](O)C(C)(C)[C@@H]5CC[C@]43C)[C@@H]2C1 | > 1450 |  |
| 810 | > 1810 | 89.5 | CC1(C)[C@@H](O)CC[C@]2(C)[C@H]3C(=O)C=C4[C@@H]5C[C@@](C)(C(=O)OC6CCC6)CC[C@]5(C)CC[C@@]4(C)[C@]3(C)CC[C@@H]12 | 742 | 8.3 |
| > 1910 | > 1910 | > 479 | CC1(C)[C@@H](O)CC[C@]2(C)[C@H]3C(=O)C=C4[C@@H]5C[C@@](C)(C(=O)OCC6CCOCC6)CC[C@]5(C)CC[C@@]4(C)[C@]3(C)CC[C@@H]12 | > 1910 |  |
| 835 | > 1720 | 198 | CCOCCOC(=O)[C@@]1(C)CC[C@]2(C)CC[C@]3(C)C(=CC(=O)[C@@H]4[C@@]5(C)CC[C@H](O)C(C)(C)[C@@H]5CC[C@]43C)[C@@H]2C1 | 541 | 2.7 |
| 1010 | > 1920 | 298 | CC1(C)[C@@H](O)CC[C@]2(C)[C@H]3C(=O)C=C4[C@@H]5C[C@@](C)(C(=O)OCCO)CC[C@]5(C)CC[C@@]4(C)[C@]3(C)CC[C@@H]12 | 380 | 1.3 |
| 209 | > 1750 | 47.2 | CCOC(=O)CCCCCOC(=O)[C@@]1(C)CC[C@]2(C)CC[C@]3(C)C(=CC(=O)[C@@H]4[C@@]5(C)CC[C@H](O)C(C)(C)[C@@H]5CC[C@]43C)[C@@H]2C1 | 54.7 | 1.2 |

More lines, now with the values behind:

| SMILES | IC50 [2] [µM] | IC50 [3] [µM] | IC50 [4] [µM] | CC50 [1] [µM] | Ratio CC50/IC50 [5] |
| --- | --- | --- | --- | --- | --- |
| CC1(C)[C@@H](O)CC[C@]2(C)[C@H]3C(=O)C=C4[C@@H]5C[C@@](C)(C(=O)OCc6ccccc6)CC[C@]5(C)CC[C@@]4(C)[C@]3(C)CC[C@@H]12 | > 2010 | > 2010 | 153 | 2010 | 13.1 |
| COC(=O)[C@@]1(C)CC[C@]2(C)CC[C@]3(C)C(=CC(=O)[C@@H]4[C@@]5(C)CC[C@H](O)C(C)(C)[C@@H]5CC[C@]43C)[C@@H]2C1 | > 1740 | > 1740 | > 444 | > 1740 |  |
| CC1(C)[C@@H](O)CC[C@]2(C)[C@H]3CC=C4[C@@H]5C[C@@](C)(C(=O)OCc6ccc(C(F)(F)F)cc6)CC[C@]5(C)CC[C@@]4(C)[C@]3(C)CC[C@@H]12 | > 1500 | > 1500 | > 375 | > 1500 |  |
| COc1cc(/C=C/C(=O)O[C@H]2CC[C@]3(C)[C@H]4CC=C5[C@@H]6C[C@@](C)(C(=O)OCc7ccc(C(F)(F)F)cc7)CC[C@]6(C)CC[C@@]5(C)[C@]4(C)CC[C@H]3C2(C)C)cc(OC)c1OC | > 987 | > 987 | > 247 | > 987 |  |
| COc1cccc(/C=C/C(=O)O[C@H]2CC[C@]3(C)[C@H]4CC=C5[C@@H]6C[C@@](C)(C(=O)OCc7ccc(C(F)(F)F)cc7)CC[C@]6(C)CC[C@@]5(C)[C@]4(C)CC[C@H]3C2(C)C)c1 | > 899 | > 899 | > 225 | > 899 |  |
| CC1(C)[C@@H](OC(=O)c2cc(=O)c3ccccc3o2)CC[C@]2(C)[C@H]3CC=C4[C@@H]5C[C@@](C)(C(=O)OCc6ccc(C(F)(F)F)cc6)CC[C@]5(C)CC[C@@]4(C)[C@]3(C)CC[C@@H]12 | > 1170 | > 1170 | > 293 | > 1170 |  |
| CC1(C)[C@@H](OC(=O)c2cc(=O)c3ccccc3o2)CC[C@]2(C)[C@H]3CC=C4[C@@H]5C[C@@](C)(C(=O)OCc6ccc(Br)cc6F)CC[C@]5(C)CC[C@@]4(C)[C@]3(C)CC[C@@H]12 | > 1080 | > 1080 | > 271 | > 1080 |  |
| CC1(C)[C@@H](OC(=O)c2cc(=O)c3ccccc3o2)CC[C@]2(C)[C@H]3CC=C4[C@@H]5C[C@@](C)(C(=O)OCC(N)=O)CC[C@]5(C)CC[C@@]4(C)[C@]3(C)CC[C@@H]12 | > 944 | > 944 | > 236 | > 944 |  |
| C=CCCOC(=O)[C@@]1(C)CC[C@]2(C)CC[C@]3(C)C(=CC(=O)[C@@H]4[C@@]5(C)CC[C@H](O)C(C)(C)[C@@H]5CC[C@]43C)[C@@H]2C1 | > 1750 | > 1750 | 332 | > 1750 | >5.3 |
| CCCCCCOC(=O)[C@@]1(C)CC[C@]2(C)CC[C@]3(C)C(=CC(=O)[C@@H]4[C@@]5(C)CC[C@H](O)C(C)(C)[C@@H]5CC[C@]43C)[C@@H]2C1 | > 1700 | > 1700 | 66.2 | 175 | 2.6 |
| CCCCCCCCCCOC(=O)[C@@]1(C)CC[C@]2(C)CC[C@]3(C)C(=CC(=O)[C@@H]4[C@@]5(C)CC[C@H](O)C(C)(C)[C@@H]5CC[C@]43C)[C@@H]2C1 | > 1030 | > 1030 | > 257 | > 1030 |  |
| CC1(C)[C@@H](O)CC[C@]2(C)[C@H]3C(=O)C=C4[C@@H]5C[C@@](C)(C(=O)OCC6CC6)CC[C@]5(C)CC[C@@]4(C)[C@]3(C)CC[C@@H]12 | 678 | > 1100 | 67 | 696 | 10.4 |
| CC1(C)[C@@H](O)CC[C@]2(C)[C@H]3C(=O)C=C4[C@@H]5C[C@@](C)(C(=O)OCCCBr)CC[C@]5(C)CC[C@@]4(C)[C@]3(C)CC[C@@H]12 | > 1390 | > 1390 | 28.6 | 160 | 5.6 |
| CC1(C)[C@@H](O)CC[C@]2(C)[C@H]3C(=O)C=C4[C@@H]5C[C@@](C)(C(=O)OCCCCCCO)CC[C@]5(C)CC[C@@]4(C)[C@]3(C)CC[C@@H]12 | 129 | > 1250 | 47.7 | 67.3 | 1.4 |
| CCOC(=O)COC(=O)[C@@]1(C)CC[C@]2(C)CC[C@]3(C)C(=CC(=O)[C@@H]4[C@@]5(C)CC[C@H](O)C(C)(C)[C@@H]5CC[C@]43C)[C@@H]2C1 | > 1200 | > 1200 | 139 | > 1200 | >8.7 |
